Data on 34 compounds can be found in the METLIN SMRT retention time set (Domingo-Almenara et al. 2019).

A short description of this data set: gradient 5% acetonitrile 3 min, to 50% in 2 min, to 85% in 15 min, held 3 min, 100 µL/min. Particulars: column: Zorbax Extend-C18 2.1 x 50 mm; eluents: water / acetonitrile, 0.1% formic acid. In outline: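 Retention time was recorded from adduct peaks, which were picked computationally and each inspected manually. Pure standards ran in mixtures of ~100 molecules on HPLC coupled to a quadrupole time-of-flight mass spectrometer, in positive and negative ionization mode, through a Zorbax Extend-C18 column (2.1 × 50 mm, 1.8 μm) at 100 μL/min. Eluents were water and acetonitrile, each with 0.1% formic acid.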
In turn, `CCc1cc2c(cc1N1CCC(N3CCOCC3)CC1)C(C)(C)c1[nH]c3cc(C#N)ccc3c1C2=O` yielded an RP-LC retention time of 740 s.
`O=S(=O)(Cc1cccc(F)c1)NCCc1ccsc1` came in with an RP-LC retention time of 852 s.
Next, `COc1cc(C(=O)N2CCN(c3cc(C)n4c(C)nnc4n3)CC2)cc(OC)c1OC`: 587 s.
`COc1ccc2c(c1)C1(CCN(S(=O)(=O)c3ccc(F)c(C)c3)C1)C(=O)N2` (centres undefined) had an RP-LC retention time of 874 s.
Under `Cn1ncc2c(Nc3cccc([N+](=O)[O-])c3)ncnc21` stands 683 s.
Next, `Cc1ccc(N2CCC(NC(=O)Nc3cccc(C)c3C)C2=O)cc1` (centres undefined): 945 s; `Cc1ccc(-c2nc(C3CC(=O)N(c4ccc(F)cc4)C3)no2)c(C)c1` (centres undefined): 1120 s; `COc1nc2ccccc2nc1N1CCCC(C(=O)N2CCCC2)C1` (centres undefined): 856 s.
For the compound `CC(C)COc1cc(=O)n2c(c1C(=O)NCC1CC1)CCCCC2`, the RP-LC retention time was 708 s.
`Cn1nc(CNC(=O)c2cccc(NC(=O)c3ccco3)c2)c2ccccc21` came in with an RP-LC retention time of 736 s.
Under `COc1ccc(C(=O)Nc2cccn3nc(C4CC4)nc23)cc1` stands 839 s.
Next, `O=C(c1n[nH]c2c1CCCC2)N1CCn2c(nnc2-c2ccccc2)C1`: 645 s; `CC(C)Cn1cc2c3c(cccc31)CN(C(=O)Nc1ccc(F)cc1)CC2`: 1070 s; `COC(=O)CNC(=O)N1CCN(c2nc3ccccc3n2Cc2ccccc2)CC1`: 644 s.
Compound `CCN1c2ccccc2C(=O)NC12CCN(C(=O)NCc1ccc(C)cc1)CC2` gave an RP-LC retention time of 796 s.
Under `Cc1noc(-c2cccc(OC3CN(C(=O)NC(C)C)C3)c2)n1` stands 760 s.
Under `CC(C)C(=O)NC(Cc1ccccc1)c1nnc(N2CCSCC2)o1` (centres undefined) stands 738 s; under `COc1cccc(-c2csc(-c3nnn(-c4ccc(Cl)cc4)c3N)n2)c1`, 1170 s; under `c1ccc(-c2ccc3c(c2)NCCN3)cc1`, 650 s.
Turning to `Cc1cccc(CN2N=C(C(=O)N3CCCC3)S(=O)(=O)c3ccccc32)c1`, the RP-LC retention time is 892 s.
For the compound `CCNC(=O)Nc1ccc(OCC(=O)NC(C)c2ccc(OC)cc2)nc1` (centres undefined), the RP-LC retention time stood at 701 s.
Under `CSc1ccc(-c2noc(Cn3nc(-c4ccccc4Cl)ccc3=O)n2)cc1` stands 1030 s.
Under `COc1ccc(C2Cn3cnc(C(=O)N4CCC(C(=O)NC5CCCCCCC5)CC4)c3CO2)cc1` (centres undefined) stands 862 s; under `Cn1cnnc1SCCNC(=O)CNC(=O)c1ccc(=O)[nH]c1`, 494 s.
With `Cc1[nH]c2ccccc2c1C(=O)C(=O)NCc1ccccn1`, the RP-LC retention time was 605 s.
Under `O=S(=O)(c1ccc2c(c1)CCC2)N1CCCn2nc(-c3cccnc3)cc2C1` stands 714 s; under `CN(C)c1nc(Nc2ccc(F)cc2)c2cnn(-c3ccccc3)c2n1`, 1310 s.
Next, `Cc1ccn2cc(-c3ccc(NC(=O)c4ccc(Cl)cc4)cc3)nc2n1`: 676 s; `Brc1ccc(-c2nc(-c3ccn4cnnc4c3)no2)cc1`: 929 s; `CC(C)NC(=O)N1CCCN(Cc2cccs2)CC1`: 564 s.
Under `O=[N+]([O-])c1cccc(C2SCCN2S(=O)(=O)c2ccc(Br)cc2)c1` (centres undefined) stands 1020 s; under `COc1nn(C)cc1C(=O)NCc1ccco1`, 599 s.
Compound `CC(=O)N1CCc2cc(N3CC(C(=O)NC(C)C)CC3=O)ccc21` (centres undefined) had an RP-LC retention time of 613 s.
Consider `Cc1nc(-c2csc(S(=O)(=O)N3CCCC(C(=O)N4CCc5ccccc5C4)C3)c2)no1` (centres undefined), for which the RP-LC retention time came to 977 s.
